Assay results published in ChEMBL document CHEMBL1201862, “PubChem BioAssay data set” (2004).
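Cells were grown in 96-well plates and exposed to each compound for 48 hours at five concentrations; endpoints were interpolated linearly between bracketing concentrations, or set to the highest concentration if not reached. GI50: concentration for 50% inhibition of growth.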 Calls of active or inactive are those of the source. Rule as the data show it: active = GI50 up to about 1.1 µM and inactive = higher.

How the values were obtained:
Assay in all cases: DTP human tumour cell line panel, 48 h
OVCAR-8 = system: OVCAR-8
LOX IMVI = system: LOX IMVI
COLO 205 = system: COLO 205
NCI-H23 = system: NCI-H23
SK-OV-3 = system: SK-OV-3
SK-MEL-2 = system: SK-MEL-2
NCI-H460 = system: NCI-H460
UACC-62 = system: UACC-62
HOP-92 = system: HOP-92
ACHN = system: ACHN
Malme-3M = system: Malme-3M
HL-60 = system: HL-60
EKVX = system: EKVX
SNB-19 = system: SNB-19
KM12 = system: KM12
M14 = system: M14
HCT-116 = system: HCT-116
HCT-15 = system: HCT-15
MCF7 = system: MCF7
MDA-MB-435 = system: MDA-MB-435

| Compound | GI50 (OVCAR-8) | GI50 (LOX IMVI) | GI50 (COLO 205) | GI50 (NCI-H23) | GI50 (SK-OV-3) | GI50 (SK-MEL-2) | GI50 (NCI-H460) | GI50 (UACC-62) | GI50 (HOP-92) | GI50 (ACHN) | GI50 (Malme-3M) | GI50 (HL-60) | GI50 (EKVX) | GI50 (SNB-19) | GI50 (KM12) | GI50 (M14) | GI50 (HCT-116) | GI50 (HCT-15) [µM] | GI50 (MCF7) | GI50 (MDA-MB-435) |
| --- | --- | --- | --- | --- | --- | --- | --- | --- | --- | --- | --- | --- | --- | --- | --- | --- | --- | --- | --- | --- |
| Cc1cc(C)c(C(=O)O)c(SSc2cc(C)cc(C)c2C(=O)O)c1 | > 100 µM (inactive) | > 100 µM (inactive) | > 100 µM (inactive) | > 100 µM (inactive) | > 100 µM (inactive) | > 100 µM (inactive) | > 100 µM (inactive) | > 100 µM (inactive) | > 100 µM (inactive) | > 100 µM (inactive) | > 100 µM (inactive) | > 100 µM (inactive) | > 100 µM (inactive) | > 100 µM (inactive) | > 100 µM (inactive) | – | – | – | – | – |
| COC(=O)C1CC(=O)CCC1c1ccccc1 (stereo not drawn) | > 100 µM (inactive) | > 100 µM (inactive) | > 100 µM (inactive) | > 100 µM (inactive) | > 100 µM (inactive) | > 100 µM (inactive) | > 100 µM (inactive) | > 100 µM (inactive) | > 100 µM (inactive) | > 100 µM (inactive) | > 100 µM (inactive) | > 100 µM (inactive) | > 100 µM (inactive) | > 100 µM (inactive) | > 100 µM (inactive) | > 100 µM (inactive) | > 100 µM (inactive) | > 100 | – | – |
| CN(C)CCS/C(=N\c1ccccc1)n1cccc1 | > 100 µM (inactive) | 43.5 µM (inactive) | > 100 µM (inactive) | 72.8 µM (inactive) | > 100 µM (inactive) | 44.7 µM (inactive) | > 100 µM (inactive) | 82.8 µM (inactive) | 24 µM (inactive) | 78.5 µM (inactive) | 89.5 µM (inactive) | 32.7 µM (inactive) | – | > 100 µM (inactive) | 82.8 µM (inactive) | > 100 µM (inactive) | > 100 µM (inactive) | 98.4 | – | – |
| O=C(NCCCCCCNC(=O)NC1OCC(O)C(O)C1O)NC1OCC(O)C(O)C1O (stereo not drawn) | > 100 µM (inactive) | > 100 µM (inactive) | > 100 µM (inactive) | > 100 µM (inactive) | > 100 µM (inactive) | > 100 µM (inactive) | > 100 µM (inactive) | > 100 µM (inactive) | > 100 µM (inactive) | > 100 µM (inactive) | > 100 µM (inactive) | > 100 µM (inactive) | > 100 µM (inactive) | < 0.01 µM (active) | > 100 µM (inactive) | > 100 µM (inactive) | > 100 µM (inactive) | > 100 | – | – |
| O=C(CC(=O)C(=O)Nc1ccccc1)CC(c1ccccc1)c1c(O)c2ccccc2oc1=O (stereo not drawn) | – | > 100 µM (inactive) | > 100 µM (inactive) | – | > 100 µM (inactive) | > 100 µM (inactive) | > 100 µM (inactive) | > 100 µM (inactive) | 23.4 µM (inactive) | > 100 µM (inactive) | > 100 µM (inactive) | > 100 µM (inactive) | > 100 µM (inactive) | > 100 µM (inactive) | > 100 µM (inactive) | > 100 µM (inactive) | > 100 µM (inactive) | > 100 | – | – |
| Cn1cnc(CCc2ccccc2)n1 | > 100 µM (inactive) | > 100 µM (inactive) | > 100 µM (inactive) | > 100 µM (inactive) | > 100 µM (inactive) | > 100 µM (inactive) | > 100 µM (inactive) | > 100 µM (inactive) | > 100 µM (inactive) | > 100 µM (inactive) | > 100 µM (inactive) | > 100 µM (inactive) | – | – | > 100 µM (inactive) | > 100 µM (inactive) | > 100 µM (inactive) | > 100 | – | – |
| COc1cccc(C2c3cc4c(cc3OC3COC(=O)C32)OCO4)c1OC (stereo not drawn) | > 100 µM (inactive) | > 100 µM (inactive) | > 100 µM (inactive) | – | 57.8 µM (inactive) | 49.4 µM (inactive) | > 100 µM (inactive) | 68.2 µM (inactive) | 99.8 µM (inactive) | > 100 µM (inactive) | > 100 µM (inactive) | 9.12 µM (inactive) | > 100 µM (inactive) | > 100 µM (inactive) | > 100 µM (inactive) | > 100 µM (inactive) | 20.2 µM (inactive) | 34.8 | 83 µM (inactive) | – |
| CCOC(=O)c1c2ccc(/C=C/c3ccccc3)ccc-2c(C(=O)OCC)c1N | – | > 100 µM (inactive) | > 100 µM (inactive) | 32 µM (inactive) | 86.1 µM (inactive) | > 100 µM (inactive) | > 100 µM (inactive) | 73.6 µM (inactive) | > 100 µM (inactive) | > 100 µM (inactive) | > 100 µM (inactive) | > 100 µM (inactive) | > 100 µM (inactive) | > 100 µM (inactive) | 54.6 µM (inactive) | > 100 µM (inactive) | > 100 µM (inactive) | > 100 | – | – |
| N#Cc1ccc(Sc2nc3ccccc3[nH]2)cc1 | > 100 µM (inactive) | > 100 µM (inactive) | > 100 µM (inactive) | > 100 µM (inactive) | > 100 µM (inactive) | > 100 µM (inactive) | 79.6 µM (inactive) | 41.7 µM (inactive) | > 100 µM (inactive) | > 100 µM (inactive) | > 100 µM (inactive) | 84.3 µM (inactive) | > 100 µM (inactive) | > 100 µM (inactive) | > 100 µM (inactive) | – | – | – | – | – |
| C[N+](C)(C)CC1CCC/C1=N/O (stereo not drawn) | 1.86 µM (inactive) | 20.6 µM (inactive) | 21.5 µM (inactive) | > 100 µM (inactive) | > 100 µM (inactive) | > 100 µM (inactive) | 50.4 µM (inactive) | > 100 µM (inactive) | > 100 µM (inactive) | > 100 µM (inactive) | > 100 µM (inactive) | 20.1 µM (inactive) | > 100 µM (inactive) | > 100 µM (inactive) | > 100 µM (inactive) | > 100 µM (inactive) | 21.5 µM (inactive) | 20 | – | – |
| Cc1cc(C)nc(NS(=O)(=O)c2ccc(NC(=O)c3ccc(Cl)c4c(Nc5ccc(S(=O)(=O)Nc6cc(C)on6)cc5)c5ccccc5nc34)cc2)n1 | 15.5 µM (inactive) | 15.8 µM (inactive) | 18.1 µM (inactive) | 14.5 µM (inactive) | 19.4 µM (inactive) | – | 18 µM (inactive) | 17.1 µM (inactive) | 16.3 µM (inactive) | 18.9 µM (inactive) | 20.9 µM (inactive) | 8.95 µM (inactive) | 19 µM (inactive) | 17 µM (inactive) | 18.4 µM (inactive) | 18.8 µM (inactive) | 20.4 µM (inactive) | – | – | – |
| CC(=O)NNc1nc(C)c(C(=O)NNC(=O)C(=O)Nc2c(Cl)cc([N+](=O)[O-])cc2Cl)s1 | 34.1 µM (inactive) | 25.6 µM (inactive) | 36.3 µM (inactive) | 18.9 µM (inactive) | 48.5 µM (inactive) | 43.5 µM (inactive) | 43.2 µM (inactive) | 29.9 µM (inactive) | 19.5 µM (inactive) | 31.8 µM (inactive) | 36.1 µM (inactive) | 28.2 µM (inactive) | 44.2 µM (inactive) | 43.8 µM (inactive) | 40 µM (inactive) | 52.1 µM (inactive) | 34.5 µM (inactive) | 40.4 | – | – |
| CSc1nc(C#N)c(/N=C\N(C)C)n1C | > 100 µM (inactive) | > 100 µM (inactive) | > 100 µM (inactive) | > 100 µM (inactive) | > 100 µM (inactive) | > 100 µM (inactive) | > 100 µM (inactive) | > 100 µM (inactive) | > 100 µM (inactive) | > 100 µM (inactive) | > 100 µM (inactive) | > 100 µM (inactive) | > 100 µM (inactive) | > 100 µM (inactive) | > 100 µM (inactive) | > 100 µM (inactive) | > 100 µM (inactive) | > 100 | – | > 100 µM (inactive) |
| CCc1cccc(C(C)C)c1NC(=O)C(=O)CC(=O)c1c(C)[n+]([O-])c2ccccc2[n+]1[O-] | > 100 µM (inactive) | > 100 µM (inactive) | > 100 µM (inactive) | > 100 µM (inactive) | > 100 µM (inactive) | > 100 µM (inactive) | > 100 µM (inactive) | > 100 µM (inactive) | > 100 µM (inactive) | 77.6 µM (inactive) | > 100 µM (inactive) | > 100 µM (inactive) | > 100 µM (inactive) | > 100 µM (inactive) | – | > 100 µM (inactive) | > 100 µM (inactive) | > 100 | – | – |
| O=c1[nH]c(=O)n(C2CC(O)C(CO)O2)cc1OS(=O)(=O)C(F)(F)F (stereo not drawn) | > 100 µM (inactive) | > 100 µM (inactive) | > 100 µM (inactive) | > 100 µM (inactive) | > 100 µM (inactive) | > 100 µM (inactive) | > 100 µM (inactive) | 38.9 µM (inactive) | > 100 µM (inactive) | > 100 µM (inactive) | > 100 µM (inactive) | > 100 µM (inactive) | > 100 µM (inactive) | > 100 µM (inactive) | > 100 µM (inactive) | > 100 µM (inactive) | > 100 µM (inactive) | > 100 | – | – |
| C/C(=C\COc1ccc2ccc(=O)oc2c1)C1=CC(=O)C(C)(C)O1 [GEIPARVARIN] | 7.11 µM (inactive) | 1.89 µM (inactive) | 4.14 µM (inactive) | 3.29 µM (inactive) | 7.87 µM (inactive) | 3.66 µM (inactive) | – | 3.94 µM (inactive) | 3.76 µM (inactive) | 4.39 µM (inactive) | 5.58 µM (inactive) | 2.29 µM (inactive) | 5.64 µM (inactive) | 6.15 µM (inactive) | – | 4.04 µM (inactive) | 2.22 µM (inactive) | 3.04 | – | 3.48 µM (inactive) |
